Source: patent US10800790B2, “Sesquiterpenoid STAT3 inhibitors” (University of Hawaii, priority 2013, dated 2020)

Tests used:
[1] = tested on: U251MG glioblastoma cells; test: CyQuant cell viability/proliferation assay, U251MG; format: cell-based, human; conditions: Table 1/FIG. 2 numbering
Method: The cell viability assay was performed as previously reported (Zhang X, et al. (2010)). Briefly, a 10 millimolar concentration stock solution in dimethylsulfoxide (DMSO) of the tested molecule was first prepared. Next, the stock solution was diluted down to various working solutions in water. Thus, a formulation of the tested compound in a DMSO/water mixture was used to test for cell viability. (A novel small-molecule disrupts STAT3 SH2 domainphosphotyrosine interactions and STAT3-dependent tumor processes, Biochem Pharmacol 79:1398-1409; Zhao W, Jaganathan S, & Turkson J (2010), A cell-permeable STAT3 SH2 domain mimetic inhibits STAT3 activation and induces antitumor cell effects in vitro. J Biol Chem. 285:35855-35865). Cells (U251MG, MDA-MB-231 or NIH3T3) were obtained from ATCC (Manassas, Va.) and were cultured in 96-well plates at 2,000 cells per well for 24 h and were treated with compounds (5 micromolar concentration) for 72 h. Cell viabilty was determined using CyQuant assay, according to the manufacturer's (Invitrogen, CA, USA) instructions. Relative viability of the treated cells was normalized to the DMSO-treated control cells.

[2] = molecular target: T1, STAT3 (NIH3T3/v-Src nuclear extracts) (Mus musculus, UniProt P42227); test: In vitro STAT3 DNA-binding activity/EMSA, nuclear extracts incubated with compound; format: biochemical; conditions: 5 micromolar, 30 min at room temperature
T1 construct: nuclear extracts prepared from v-Src-transformed mouse fibroblasts (NIH3T3/v-Src) containing active STAT3; endogenous in cells; host or cells: NIH3T3/v-Src mouse fibroblasts (nuclear extract)
Method: To further determine the effects of the bioactive agents on STAT3 activity, nuclear extracts prepared from v-Src-transformed mouse fibroblasts (NIH3T3/v-Src) containing active STAT3 were directly incubated with 5 micromolar compounds for 30 min at room temperature prior to performing STAT3 DNA-binding activity in vitro with EMSA analysis. […] These studies indicate that agents directly interact with STAT3 and disrupt STAT3:STAT3 dimers, thereby inhibiting its DNA-binding activity.
Data are representative of 2-3 independent determinations.
Nuclear extract preparations and DNA-binding/electrophoretic mobility shift assay (EMSA) were carried out as previously described (Xu, supra). Nuclear extract preparations and DNA-binding activity/electrophoretic mobility shift assay (EMSA) were carried out as previously described. U251 MG and MDA-MB-231 cells culture were pretreated with different concentrations of the compounds for the indicated period and then harvested for nuclear extract preparation and DNA-binding assay with EMSA analysis. The ^32P-labeled oligonucleotide probe used was hSIE (high-affinity sis-inducible element) from the c-fos gene, m67 variant (5′-[…]-3′) that binds STAT3. Except where indicated, nuclear extracts were pre-incubated with compound for 30 min at room temperature prior to incubation with the radiolabeled probe for 30 min at 30° C. before subjecting to EMSA analysis. Where appropriate, bands corresponding to DNA-binding activities were scanned and quantified for each concentration of compound using ImageJ and plotted as percent of control (vehicle) against concentration of compound, from which the IC50 values were derived.

[3] = tested on: U251 MG cells; test: iTRAQ proteomics with immunoblot validation, U251 MG cells; format: cell-based, human
Method: To investigate the possibility that the hirsutinolides could induce global molecular changes in the sensitive malignant cells, lysates were prepared from U251 MG cells untreated or treated with 6 or 22 for 1 h and analyzed by isobaric peptide labeling and nanoLC-MS/MS analysis (iTRAQ) proteomics method (Ross, P. L., et al., Multiplexed protein quantitation in Saccharomyces cerevisiae using amine-reactive isobaric tagging reagents, Mol Cell Proteomics., 2004. 3: p. 1154-69), as described in the Examples section. A search was pursed of the 341,908 mass spectrometry spectra using ProteinPilot (version 4.5; Applied Biosystems) against the National Center for Biotechnology Information non-redundant reference sequence (NCBInr) human database and based on the criteria of choosing only proteins with at least 95% confidence and with a “Local False Discovery Rate” no higher than 5%, as calculated from the slope of the accumulated Decoy database hits by the PSPEP estimation. […]
Cellular samples were prepared according to the Pennsylvania STATe University College of Medicine Mass Spectrometry and Proteomics Core (MSPC) facility (Hershey, Pa.) standard protocol, adapted from the manufacturer's instructions (Applied Biosystems Sciex, Foster City, Calif.), combined with filter-aided sample preparation, as previously reported. […] For iTRAQ analysis (Ross, P. L., et al., Multiplexed protein quantitation in Saccharomyces cerevisiae using amine-reactive isobaric tagging reagents, Mol Cell Proteomics., 2004, 3: p. 1154-69), one hundred micrograms of whole-cell lysates from U251 MG cells untreated (DMSO control) or treated with 5 micromolar of compounds 22 or 6 for 1 h were independently digested, and their corresponding cellular proteins were differently labeled with 114, 115 or 117 tags, respectively, using iTRAQ reagents. […] Protein identification and quantification for iTRAQ samples were carried out using ProteinPilot™ software (version 4.5; Applied Biosystems, MDS-Sciex, Framingham, Mass.). […]

[4] = tested on: pSTAT1; test: Immunoblotting of EGF-induced pSTAT1 in NIH3T3/hEGFR; conditions: 5 micromolar
Method: To determine the specificity of agents, mouse fibroblasts over-expressing the human EGF receptor (NIH3T3/hEGFR) were treated with the compounds and stimulated with EGF.
(A-C) SDS-PAGE and Western blotting analysis of whole-cell lysates of equal total protein prepared from (A) EGF-stimulated NIH3T3/hEGFR cells pre-treated with the 5 micromolar of the designated agents for 24 h and probing for pY705STAT3, STAT3, pY701 STAT1, STAT1, pY694STAT5, STAT5 or GAPDH, or the human glioma, U251MG cells treated with 5 micromolar of the designated inhibitors for (B) 0-32 h and probing for pS-Akt, Akt, pErk1/2, Erk1/2, pJAK2, JAK2, SOCS3, PTP1B, pSTAT3, STAT3, β-actin or GAPDH; or (C) 3 h in the absence or presence of increasing concentration of Na3VO4 and probing for pSTAT3, STAT3 or GAPDH/.

T1 sequence (P42227 whole entry): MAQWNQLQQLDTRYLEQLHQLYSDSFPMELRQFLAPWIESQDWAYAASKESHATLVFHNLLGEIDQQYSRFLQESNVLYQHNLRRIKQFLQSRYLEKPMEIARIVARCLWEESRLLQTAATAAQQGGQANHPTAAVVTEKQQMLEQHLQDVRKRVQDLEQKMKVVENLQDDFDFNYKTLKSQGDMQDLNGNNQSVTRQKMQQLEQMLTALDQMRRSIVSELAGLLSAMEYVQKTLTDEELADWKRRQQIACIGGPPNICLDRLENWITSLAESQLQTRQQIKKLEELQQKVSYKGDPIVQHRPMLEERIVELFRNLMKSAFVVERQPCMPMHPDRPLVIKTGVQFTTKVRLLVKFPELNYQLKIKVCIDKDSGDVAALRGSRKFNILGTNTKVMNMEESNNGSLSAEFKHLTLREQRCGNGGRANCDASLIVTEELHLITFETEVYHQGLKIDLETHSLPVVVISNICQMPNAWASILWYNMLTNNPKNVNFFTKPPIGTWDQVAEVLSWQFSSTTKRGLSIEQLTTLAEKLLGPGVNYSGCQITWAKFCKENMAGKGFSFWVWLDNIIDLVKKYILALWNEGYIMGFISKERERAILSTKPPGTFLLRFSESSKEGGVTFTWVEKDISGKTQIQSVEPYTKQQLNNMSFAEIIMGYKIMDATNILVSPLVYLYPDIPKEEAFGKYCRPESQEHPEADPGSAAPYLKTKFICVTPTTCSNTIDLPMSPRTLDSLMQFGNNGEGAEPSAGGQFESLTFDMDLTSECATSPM

Substance: (4S,6R,E)-4,7-dihydroxy-6,10-dimethyl-2-oxo-2,4,5,6,7,8,9,10-octahydro-7,10-epoxycyclodeca[b]furan-3-yl)methyl(E)-2-methylbut-2-enoate [Compound 22]
- IC50 ([1]; 72-h treatment, read-out: IC50 for the inhibition of U251MG cell viability): 2600 nM
- Cell-type selectivity of growth inhibition, in words ([1]; U251MG versus other cells incl. NIH3T3): selective against the growth of human glioma U251MG cells
- Inhibition of STAT3 DNA-binding activity in vitro (EMSA) [2]: strong inhibition
- Expression of GCN1 (immunoblot) ([3]; U251MG): reduced expression
- Importin subunit α-2 up ([3]; iTRAQ, 5 micromolar, 1 h): 2 fold
- MAP1B down ([3]; iTRAQ, 5 micromolar, 1 h): ~2 fold
- Effect on EGF-induced pSTAT1 [4]: no effects
